Assay results: patent publication US20230113501A1, “TREATMENT OF LEUKEMIAS AND LYMPHOMAS WITH COMBINATIONS OF BCL-2 INHIBITORS AND PLK1 INHIBITORS” (Cardiff Oncology, Inc., priority 2020, published 2023)

Key:
[1] = system: OCI-AML3 xenograft; assay: Efficacy of onvansertib alone and in combination with venetoclax in an OCI-AML3 xenograft model (tumor volume, survival); type: in vivo, CB17 NOD.SCID mice; details: for Average tumor volume: oral gavage; for Mean Diff. (vehicle vs. treatment), Dunnett's multiple comparisons test: tumor volumes from day 14
Procedure: In this example, the efficacy of onvansertib alone and in combination with venetoclax was evaluated in an OCI-AML3 xenograft model.
The OCI-AML3 cell line easily engrafts in NOD/SCID mice, maintaining the typical features of NPMc+ AML, including NPM cytoplasmic expression.
OCI-AML3 cells (DSMZ cat no: ACC 582) were cultured in RPMI supplemented with 10% FBS and 1%P/S, in a humidified incubator at 37° C. and 5% CO2. Normocin (Invivogen) was also added according to the manufacturer's recommendation to prevent mycoplasma growth.
(§1) CB17 NOD.SCID mice (female, 5 weeks old) were procured through Envigo (Strain NOD.CB17-Prkdc*scidNCrHsd). Mice were fed Teklad irradiated (sterilized) mouse diet and bedded with Teklad irradiated (sterilized) corncob bedding from Envigo (Indianapolis, Ind.). Mice were housed in Optimice carousel sterile quarters with filtered air supply in disposable cages from Animal Care Systems, Inc. (Centennial, Colo.).
On the day of implantation (Oct. 8, 2019), OCI-AML3 cells were collected and spun at 400 ×g. Media was aspirated and cells were resuspended in 50:50 *Cultrex:PBS (w/o calcium and magnesium) at a concentration of 1×10^8 cells/mL. A volume of 100 μL was injected into the right hind flank of each animal (a total of 1×10^7 cells). Filled syringes and cells were kept on ice to prevent gelling of matrigel. *Cultrex: BME, type 3, 17.24 mg/mL R&D systems Cat. #3632-005-02, Lot #40498J17
(§2) Tumor volumes were monitored, and, when mean tumor volume reached ˜200 mm^3, mice were stratified and placed into (4) treatment groups of (10) mice as outlined in Table 1.
(§3) Treatments were administered by oral gavage (polypropylene needles, Instech, Cat. FTP-20-38) daily for venetoclax for 14 days, and 5 days on 2 days off for two cycles for Onvansertib. For clarity, the combination was dosed so that venetoclax was given daily and the onvansertib was given 5 days on, 2 days off, just like the single agent groups.
Individual tumor volumes were measured by electronic caliper 2× a week.
Using tumor volumes from day 14 (the last day with all mice on study), an ordinary ANOVA test with a Dunnett's multiple comparison was performed using Prism (graphpad v. 8.3.0) (Table 4).
A survival graph was plotted (FIG. 2) and survival analysis (death=takedown for tumor burden limit) was also performed using Prism software (individual comparisons of survival curves using the Mantel-Cox test and Gehan-Breslow-Wilcoxon test shown in Table 5).

[2] = Animal health: body weight and tolerability in the OCI-AML3 xenograft study; type: in vivo, CB17 NOD.SCID mice; details: the values are: relative body weight (ratio to day 0)
Text: as §1, §2, §3
All dosing was performed without any unexpected problems noted. […] Therefore, the single agents and combination were tolerated at the tested dose and schedule.
The group average change in weight relative to day 0 of the study is shown in […]

[3] = system: OCI-AML3 xenograft; assay: Efficacy of onvansertib alone and in combination with venetoclax in an OCI-AML3 xenograft model (tumor volume, survival); type: in vivo, CB17 NOD.SCID mice; details: onvansertib 40 mg/kg
[4] = patients with advanced/metastatic solid tumors, cited from earlier work
[5] = target: PLK1 (Homo sapiens, UniProt P53350); details: including other PLK members; cited from earlier work
Sequence of PLK1 (P53350 whole entry): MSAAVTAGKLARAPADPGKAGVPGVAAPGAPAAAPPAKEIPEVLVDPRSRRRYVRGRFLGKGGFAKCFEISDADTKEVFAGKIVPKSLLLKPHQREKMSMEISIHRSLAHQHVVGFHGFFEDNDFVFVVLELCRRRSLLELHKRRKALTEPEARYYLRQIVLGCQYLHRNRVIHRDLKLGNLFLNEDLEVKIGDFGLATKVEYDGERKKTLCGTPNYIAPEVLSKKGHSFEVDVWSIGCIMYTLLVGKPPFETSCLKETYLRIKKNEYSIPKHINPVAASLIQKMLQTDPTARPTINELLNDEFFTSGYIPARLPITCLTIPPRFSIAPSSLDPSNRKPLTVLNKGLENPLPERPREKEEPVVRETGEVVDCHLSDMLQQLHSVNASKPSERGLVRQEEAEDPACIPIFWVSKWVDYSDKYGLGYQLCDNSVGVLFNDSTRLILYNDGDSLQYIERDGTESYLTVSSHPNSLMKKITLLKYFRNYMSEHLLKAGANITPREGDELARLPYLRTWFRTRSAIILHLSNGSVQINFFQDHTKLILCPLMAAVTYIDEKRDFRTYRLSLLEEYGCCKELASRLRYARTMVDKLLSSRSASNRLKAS

[6] = system: AML cell lines; details: cited from earlier work
[7] = Day 0, venetoclax 75 mg/kg, onvansertib 30 mg/kg
[8] = Day 4, venetoclax 75 mg/kg, onvansertib 30 mg/kg
[9] = Day 7, venetoclax 75 mg/kg, onvansertib 30 mg/kg
[10] = Day 11, venetoclax 75 mg/kg, onvansertib 30 mg/kg
[11] = Day 14, venetoclax 75 mg/kg, onvansertib 30 mg/kg
[12] = Day 18, venetoclax 75 mg/kg, onvansertib 30 mg/kg

For CN1CCN(c2ccc(OC(F)(F)F)c(Nc3ncc4c(n3)-c3c(c(C(N)=O)nn3CCO)CC4)c2)CC1 [Onvansertib, 1-(2-hydroxyethyl)-8-{[5-(4-methylpiperazin-1l-yl)-2-(trifluoromethoxy)phenyl]amino}-4,5-dihydro-1H-pyrazolo[4,3-h] quinazoline-3-carboxamide], the Average tumor volume [1, 7] was 208.48 mm^3, the Average tumor volume [1, 8] was 367.54 mm^3 and the Average tumor volume [1, 9] was 708.38 mm^3. It also gave an Average tumor volume [1, 10] of 980.01 mm^3, an Average tumor volume [1, 11] of 1461.86 mm^3 and an Average tumor volume [1, 12] of 2269.05 mm^3. The “Mean Diff. (vehicle vs. treatment), Dunnett's multiple comparisons test” value [1] was 960, the “Significant? Dunnett's multiple comparisons test” value ([1]; tumor volumes from day 14, vehicle vs. treatment) was “Yes” and the “Survival, Gehan-Breslow-Wilcoxon test, Are the survival curves sig different?” value ([1]; vehicle vs. treatment) was “Yes”. For the same compound, the “Survival, Log-rank (Mantel-Cox) test, Are the survival curves sig different?” value ([1]; vehicle vs. treatment) was “No”, the “Survival, Log-rank (Mantel-Cox) test, Chi square” value ([1]; vehicle vs. treatment, death = takedown for tumor burden limit) was 3.577 and the “Survival, Gehan-Breslow-Wilcoxon test, Chi square” value ([1]; vehicle vs. treatment, higher weighing for early events) was 5.221. For the same compound, the “Activity in the OCI-AML3 xenograft (conclusion)” value ([1]; venetoclax 75 mg/kg, onvansertib 30 mg/kg, and the combination) was “Activity was noted”, the “Tumor growth inhibition as single agent” value ([1]; venetoclax 75 mg/kg, onvansertib 30 mg/kg) was “some tumor growth inhibition” and the Relative body weight (ratio to day 0) ([2]; Day 0) was 1. The Relative body weight (ratio to day 0) ([2]; Day 4) was 1.04, the Relative body weight (ratio to day 0) ([2]; Day 7) was 1.07 and the Relative body weight (ratio to day 0) ([2]; Day 11) was 1.1. For the same compound, the Relative body weight (ratio to day 0) ([2]; Day 14) was 1.13, the Relative body weight (ratio to day 0) ([2]; Day 18) was 1.18 and the “Single agent activity in the previous study” value [3] was “single agent activity”. For the same compound, the Half-life [4] was 20 and 30 hours, the Primary dose-limiting toxicities ([4]; reversible, recovery within 3 weeks) was “neutropenia and thrombocytopenia” and the “Specificity for PLK1 among a panel of 296 kinases” value [5] was “high specificity”. The “Concentrations that inhibited cell proliferation” value [6] was “nanomolar concentrations”.
With CC1(C)CCC(CN2CCN(c3ccc(C(=O)NS(=O)(=O)c4ccc(NCC5CCOCC5)c([N+](=O)[O-])c4)c(Oc4cnc5[nH]ccc5c4)c3)CC2)=C(c2ccc(Cl)cc2)C1 [Venetoclax] the Average tumor volume [1, 7] was 203.78 mm^3, the Average tumor volume [1, 8] was 441.01 mm^3 and the Average tumor volume [1, 9] was 861.05 mm^3. It also gave an Average tumor volume [1, 10] of 1362.15 mm^3, an Average tumor volume [1, 11] of 2110.23 mm^3 and an Average tumor volume [1, 12] of 2856.33 mm^3. The “Mean Diff. (vehicle vs. treatment), Dunnett's multiple comparisons test” value [1] was 311.6, the Relative body weight (ratio to day 0) ([2]; Day 0) was 1 and the Relative body weight (ratio to day 0) ([2]; Day 4) was 1.03. The Relative body weight (ratio to day 0) ([2]; Day 7) was 1.07, the Relative body weight (ratio to day 0) ([2]; Day 11) was 1.09 and the Relative body weight (ratio to day 0) ([2]; Day 14) was 1.12. The Relative body weight (ratio to day 0) ([2]; Day 18) was 1.15.
